# Entries after “also recorded” stand apart in the source; their conditions may differ.
# Test system: HeLa cells
# Assay: Intracellular free amino acids by LC-MS/MS
# Format: cell-based, human
# Conditions: 25 μM, 24 h, vs negative control
# Method: The intracellular free amino acid level was measured according to the Chen et al method. HeLa cells were planted in 10 cm^2 cell culture dishes, and following 24 h treatment with sulfonamide at a dose of 25 μM, the growth medium was poured out, and the cells were swiftly washed twice with 5 ml cold PBS. Pre-cooled MeOH (−60 °C) was added, and the cells were stripped with a cell scraper. The cell suspension obtained was replaced in 15 ml conic tubes. The samples were kept in liquid nitrogen for 10 min and then dissolved on ice, which was triplicated until the cells were shredded. The samples were centrifuged at 3.000 g at 4 °C, for 30 min, and the supernatants were transferred to new tubes. The amino acid level in the supernatant was measured using LC-MS/MS according to the protocol of the Jasem kit. The Jasem free amino acid assay kit is used for studies involving the diagnosis of various hereditary metabolic disorders and the feeding of newborns with hereditary metabolic disorders. In this study, the protocol used to determine the intracellular free amino acid is as follows. […] 27 amino acids in the acquired supernatant were analysed in HPLC vials using LC-MS/MS (Shimadzu 8045, Kyoto, Japan). The residual pellet was lysed in 1 ml lysis buffer, protein concentration of which was detected using the BCA protein assay kit (Thermo Fisher Scientific, Waltham, MA, USA). […]
compound,measurement,value
NS(=O)(=O)c1ccc(CCN=Cc2cc(Cl)ccc2O)cc1 [Compound A-1],intracellular free amino acid levels,the amino acids showed a decline as compared to the negative control group; also recorded: increase in tyrosine levels and a reduction in other amino acids
